Reference: US12522594B2, “2-heteroaryl-3-oxo-2,3-dihydropyridazine-4-carboxamides for the treatment of cancer” (Deutsches Krebsforschungszentrum, priority 2017, dated 2026)

Assays:
Format in all cases: cell-based
[1] = target: T1, AHR (Homo sapiens, UniProt P35869); test: In vitro assay 2: agonism in human cell line (transactivation assay, U87 cells, DRE firefly luciferase reporter); design: host or cells: U87 glioblastoma cells, stably transfected with DRE firefly luciferase and renilla reporter constructs; details: no kynurenic acid, 20 hours, read-out: Assay 2: AHR-luc Hum Agonism IC50
T1 sequence (P35869 11-848): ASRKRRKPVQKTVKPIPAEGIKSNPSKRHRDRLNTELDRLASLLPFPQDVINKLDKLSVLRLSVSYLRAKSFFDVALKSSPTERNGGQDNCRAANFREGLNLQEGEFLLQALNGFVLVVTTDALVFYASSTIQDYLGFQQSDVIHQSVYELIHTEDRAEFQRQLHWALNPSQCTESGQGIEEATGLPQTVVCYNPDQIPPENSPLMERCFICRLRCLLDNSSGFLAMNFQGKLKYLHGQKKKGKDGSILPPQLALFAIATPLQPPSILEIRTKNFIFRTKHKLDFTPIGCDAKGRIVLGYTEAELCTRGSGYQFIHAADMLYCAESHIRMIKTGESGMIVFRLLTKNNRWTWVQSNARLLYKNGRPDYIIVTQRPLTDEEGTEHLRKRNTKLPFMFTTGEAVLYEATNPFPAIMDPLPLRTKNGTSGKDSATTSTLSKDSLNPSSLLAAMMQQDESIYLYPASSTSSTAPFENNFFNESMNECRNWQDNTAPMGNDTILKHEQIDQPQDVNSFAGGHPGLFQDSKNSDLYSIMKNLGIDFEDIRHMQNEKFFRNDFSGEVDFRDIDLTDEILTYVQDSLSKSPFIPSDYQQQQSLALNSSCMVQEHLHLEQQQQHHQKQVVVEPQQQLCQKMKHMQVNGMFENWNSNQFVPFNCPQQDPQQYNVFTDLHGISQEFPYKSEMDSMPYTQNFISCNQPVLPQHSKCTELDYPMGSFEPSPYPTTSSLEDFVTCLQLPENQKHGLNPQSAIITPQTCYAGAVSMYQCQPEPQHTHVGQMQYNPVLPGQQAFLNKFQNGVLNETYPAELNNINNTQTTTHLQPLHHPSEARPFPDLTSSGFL
Summary of the method: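 Agonist readout: DRE firefly luciferase, with constitutive renilla reporter, in stably transfected U87 cells expressing AHR endogenously. Normalization used positive control (300 uM kynurenic acid) and negative control.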

[2] = target: T1, AHR; test: In vitro assay 3: AHR-regulated CYP1A1 expression in human cell line (U937, qPCR, KA stimulation); details: U937 cells, 200 uM KA, 6 hours, CYP1A1 expression by qPCR; read-out: Assay 3: Hum CYP1A1 Antagonism IC50
Summary of the method: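 U937 human monocytic cells were stimulated with 200 uM KA for 6 h, with or without compound at eight concentrations from 1 nM to 3 uM, in duplicate. CYP1A1 mRNA was quantified by Taqman qPCR as fold expression normalised to HPRT. Unstimulated cells served as negative control.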

[3] = target: T1, AHR; test: In vitro assay 1: antagonism in human cell line (transactivation assay, U87 cells prestimulated with kynurenic acid, DRE firefly luciferase reporter); design: host or cells: U87 glioblastoma cells, stably transfected with DRE firefly luciferase and renilla reporter constructs; details: 150 uM kynurenic acid, 20 hours, read-out: Assay 1: AHR-luc Hum Antagonism IC50
Summary of the method: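 Antagonism measured after kynurenic acid prestimulation in U87 cells that express AHR endogenously and stably harbor a firefly luciferase gene under DRE control plus a constitutive renilla construct. Positive and negative controls served for normalization.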

IC50 [1] | IC50 [2] | IC50 [3] | Structure (SMILES)
> 20000 nM | 21.8 nM | 24.2 nM | C[C@@H](CO)NC(=O)c1cc(-c2ccc(Cl)cc2)nn(-c2cccnc2)c1=O [Example 68, 6-(4-Chlorophenyl)-N-[(2S)-1-hydroxypropan-2-yl]-3-oxo-2-(pyridin-3-yl)-2,3-dihydropyridazine-4-carboxamide]
> 20000 nM | 4.32 nM | 24.8 nM | O=C(N[C@H](CO)CF)c1cc(-c2ccc(Cl)cc2)nn(-c2cccnc2)c1=O [Example 93, (+)-6-(4-Chlorophenyl)-N-[(2R)-1-fluoro-3-hydroxypropan-2-yl]-3-oxo-2-(pyridin-3-yl)-2,3-dihydropyridazine-4-carboxamide]
> 20000 nM | 16.5 nM | 8.44 nM | O=C(N[C@H](CO)C1CC1)c1cc(-c2ccc(C(F)(F)F)cc2)nn(-c2cccnc2)c1=O [Example 94, N-[(1S)-1-Cyclopropyl-2-hydroxyethyl]-3-oxo-2-(pyridin-3-yl)-6-[4-(trifluoromethyl)phenyl]-2,3-dihydropyridazine-4-carboxamide]
> 20000 nM | 3.77 nM | 3.67 nM | O=C(N[C@H](CO)C(F)(F)F)c1cc(-c2ccc(Cl)cc2)nn(-c2cccnc2)c1=O [Example 96, (+)-6-(4-Chlorophenyl)-3-oxo-2-(pyridin-3-yl)-N-[(2R)-1,1,1-trifluoro-3-hydroxypropan-2-yl]-2,3-dihydropyridazine-4-carboxamide]
> 20000 nM | 1.69 nM | 1.88 nM | O=C(N[C@H]1CCC[C@@H]1O)c1cc(-c2ccc(C(F)(F)F)cc2)nn(-c2cccnc2)c1=O [Example 102, N-[(1S,2S)-2-Hydroxycyclopentyl]-3-oxo-2-(pyridin-3-yl)-6-[4-(trifluoromethyl)phenyl]-2,3-dihydropyridazine-4-carboxamide]
> 20000 nM | 24.5 nM | 13.3 nM | O=C(N[C@@H]1CCC[C@@H]1O)c1cc(-c2ccc(C(F)(F)F)cc2)nn(-c2cccnc2)c1=O [Example 103, N-[(1R,2S)-2-Hydroxycyclopentyl]-3-oxo-2-(pyridin-3-yl)-6-[4-(trifluoromethyl)phenyl]-2,3-dihydropyridazine-4-carboxamide]
> 20000 nM | 14.8 nM | 20.2 nM | O=C(N[C@@H]1CCC[C@H]1O)c1cc(-c2ccc(C(F)(F)F)cc2)nn(-c2cccnc2)c1=O [Example 104, N-[(1R,2R)-2-Hydroxycyclopentyl]-3-oxo-2-(pyridin-3-yl)-6-[4-(trifluoromethyl)phenyl]-2,3-dihydropyridazine-4-carboxamide]
> 20000 nM | 1.86 nM | 2.37 nM | O=C(N[C@H]1CCC[C@H]1O)c1cc(-c2ccc(C(F)(F)F)cc2)nn(-c2cccnc2)c1=O [Example 105, N-[(1S,2R)-2-Hydroxycyclopentyl]-3-oxo-2-(pyridin-3-yl)-6-[4-(trifluoromethyl)phenyl]-2,3-dihydropyridazine-4-carboxamide]

The remaining lines, values behind:

Structure (SMILES) | IC50 [1] | IC50 [2] | IC50 [3]
C[C@@H](CO)NC(=O)c1cc(-c2ccc(C(F)(F)F)cc2)nn(-c2cnn(C)c2)c1=O [Example 39, (+)-N-[(2S)-1-Hydroxypropan-2-yl]-2-(1-methyl-1H-pyrazol-4-yl)-3-oxo-6-[4-(trifluoromethyl)phenyl]-2,3-dihydropyridazine-4-carboxamide] | > 20000 nM | 3.39 nM | 2.08 nM
Cn1cc(-n2nc(-c3ccc(OC(F)(F)F)cc3)cc(C(=O)N[C@H]3CCCC[C@H]3O)c2=O)cn1 [Example 46, N-[(1S,2R)-2-Hydroxycyclohexyl]-2-(1-methyl-1H-pyrazol-4-yl)-3-oxo-6-[4-(trifluoromethoxy)phenyl]-2,3-dihydropyridazine-4-carboxamide] | > 20000 nM | 1.36 nM | 1.48 nM
Cn1cc(-n2nc(-c3ccc(Cl)cc3)cc(C(=O)N[C@H]3CCC[C@@H]3O)c2=O)cn1 [Example 49, 6-(4-Chlorophenyl)-N-[(1S,2S)-2-hydroxycyclopentyl]-2-(1-methyl-1H-pyrazol-4-yl)-3-oxo-2,3-dihydropyridazine-4-carboxamide] | > 20000 nM | 7.55 nM | 6.5 nM
Cn1cc(-n2nc(-c3ccc(Cl)cc3)cc(C(=O)N[C@H]3CCC[C@H]3O)c2=O)cn1 [Example 50, 6-(4-Chlorophenyl)-N-[(1S,2R)-2-hydroxycyclopentyl]-2-(1-methyl-1H-pyrazol-4-yl)-3-oxo-2,3-dihydropyridazine-4-carboxamide] | > 20000 nM | 6.74 nM | 8.39 nM
C[C@@H](CO)NC(=O)c1cc(-c2ccc(OC(F)(F)F)cc2)nn(-c2cnn(C)c2)c1=O [Example 53, N-[(2S)-1-Hydroxypropan-2-yl]-2-(1-methyl-1H-pyrazol-4-yl)-3-oxo-6-[4-(trifluoromethoxy)phenyl]-2,3-dihydropyridazine-4-carboxamide] | > 20000 nM | 11.1 nM | 11.6 nM
C[C@@H](CO)NC(=O)c1cc(-c2ccc(C(F)F)cc2)nn(-c2cnn(C)c2)c1=O [Example 58, 6-[4-(Difluoromethyl)phenyl]-N-[(2S)-1-hydroxypropan-2-yl]-2-(1-methyl-1H-pyrazol-4-yl)-3-oxo-2,3-dihydropyridazine-4-carboxamide] | > 20000 nM | 10.8 nM | 18.6 nM
Cn1cc(-n2nc(-c3ccc(Cl)cc3)cc(C(=O)N[C@H]3COCC[C@H]3O)c2=O)cn1 [Example 61, 1,5-Anhydro-2-({[6-(4-chlorophenyl)-2-(1-methyl-1H-pyrazol-4-yl)-3-oxo-2,3-dihydropyridazin-4-yl]carbonyl}amino)-2,4-dideoxy-D-erythro-pentitol] | > 20000 nM | 38.9 nM | 28.4 nM
Cn1cc(-n2nc(-c3ccc(C(F)F)cc3)cc(C(=O)NCC(C)(C)O)c2=O)cn1 [Example 62, 6-[4-(Difluoromethyl)phenyl]-N-(2-hydroxy-2-methylpropyl)-2-(1-methyl-1H-pyrazol-4-yl)-3-oxo-2,3-dihydropyridazine-4-carboxamide] | > 20000 nM | 19.1 nM | 29.5 nM
CC(C)(O)CNC(=O)c1cc(-c2ccc(Cl)cc2)nn(-c2cccnc2)c1=O [Example 71, 6-(4-Chlorophenyl)-N-(2-hydroxy-2-methylpropyl)-3-oxo-2-(pyridin-3-yl)-2,3-dihydropyridazine-4-carboxamide] | > 20000 nM | 60.7 nM | 38 nM
O=C(NC[C@H](O)CO)c1cc(-c2ccc(Cl)cc2)nn(-c2cccnc2)c1=O [Example 72, (−)-6-(4-Chlorophenyl)-N-[(2S)-2,3-dihydroxypropyl]-3-oxo-2-(pyridin-3-yl)-2,3-dihydropyridazine-4-carboxamide] | > 20000 nM | 495 nM | 182 nM
O=C(NC[C@@H](O)CO)c1cc(-c2ccc(Cl)cc2)nn(-c2cccnc2)c1=O [Example 73, (+)-6-(4-Chlorophenyl)-N-[(2R)-2,3-dihydroxypropyl]-3-oxo-2-(pyridin-3-yl)-2,3-dihydropyridazine-4-carboxamide] | > 20000 nM | 355 nM | 283 nM
C[C@@H](CO)NC(=O)c1cc(-c2ccc(Cl)cc2)nn(-c2cncc(F)c2)c1=O [Example 80, 6-(4-Chlorophenyl)-2-(5-fluoropyridin-3-yl)-N-[(2S)-1-hydroxypropan-2-yl]-3-oxo-2,3-dihydropyridazine-4-carboxamide] | > 20000 nM | 32.6 nM | 27.1 nM
CC(C)(O)CNC(=O)c1cc(-c2ccc(Cl)cc2)nn(-c2cncc(F)c2)c1=O [Example 82, 6-(4-Chlorophenyl)-2-(5-fluoropyridin-3-yl)-N-(2-hydroxy-2-methylpropyl)-3-oxo-2,3-dihydropyridazine-4-carboxamide] | > 20000 nM | 34.5 nM | 37.6 nM
